Earlier results on four compounds are cited in US20220370466A1, “REGIMENS FOR TREATING HIV INFECTIONS AND AIDS” (ViiV Healthcare Company, priority 2017, published 2022).

Like-named read-outs stand apart in the source and are kept apart here.

Data set [1] deals with cytochrome P450 (CYP) isozymes.
Data set [2] addresses T1, CYP3A4 (Homo sapiens, UniProt P08684).
Another data set concerns HIV-1. As to conditions: lymphoblastoid cell lines, MAGI-CCR5 cell line, peripheral blood mononuclear cells.
The next data set has as its target T2, UGT1A9 (Homo sapiens, UniProt O60656).
T2 sequence (O60656 26-530): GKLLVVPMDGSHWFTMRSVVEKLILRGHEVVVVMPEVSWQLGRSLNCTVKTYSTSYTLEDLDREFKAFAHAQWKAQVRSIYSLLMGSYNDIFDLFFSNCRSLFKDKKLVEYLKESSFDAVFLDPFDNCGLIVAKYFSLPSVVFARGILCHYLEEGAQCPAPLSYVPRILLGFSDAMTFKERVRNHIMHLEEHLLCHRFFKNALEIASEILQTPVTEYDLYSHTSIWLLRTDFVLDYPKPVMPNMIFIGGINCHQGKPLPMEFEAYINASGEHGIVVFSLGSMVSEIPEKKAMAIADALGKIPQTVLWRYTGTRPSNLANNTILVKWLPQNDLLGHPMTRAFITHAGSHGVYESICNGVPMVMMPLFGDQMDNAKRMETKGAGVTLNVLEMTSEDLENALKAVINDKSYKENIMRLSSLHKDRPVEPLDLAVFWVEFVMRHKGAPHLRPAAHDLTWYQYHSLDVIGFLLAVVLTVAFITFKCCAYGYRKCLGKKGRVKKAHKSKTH
As to conditions: in vitro.

In another data set the target is T3, UGT1A1 (Homo sapiens, UniProt P22309).
T3 sequence (P22309 26-533): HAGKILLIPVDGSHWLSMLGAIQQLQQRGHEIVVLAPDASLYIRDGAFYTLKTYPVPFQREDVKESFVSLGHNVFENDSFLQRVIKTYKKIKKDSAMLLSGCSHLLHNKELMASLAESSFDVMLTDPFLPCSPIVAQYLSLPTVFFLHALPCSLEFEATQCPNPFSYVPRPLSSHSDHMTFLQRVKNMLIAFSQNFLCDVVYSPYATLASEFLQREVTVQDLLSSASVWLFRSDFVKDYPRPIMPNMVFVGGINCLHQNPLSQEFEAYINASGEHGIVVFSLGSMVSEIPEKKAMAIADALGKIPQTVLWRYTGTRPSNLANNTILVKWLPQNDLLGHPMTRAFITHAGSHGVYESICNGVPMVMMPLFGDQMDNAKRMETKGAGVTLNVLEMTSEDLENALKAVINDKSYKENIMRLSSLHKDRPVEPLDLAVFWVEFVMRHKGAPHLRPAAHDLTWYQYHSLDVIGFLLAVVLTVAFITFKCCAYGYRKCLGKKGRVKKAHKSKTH

In data set [3] the target is T1, CYP3A4. The source holds these as a separate data set.
In a further data set the target is T4, UGT1A3 (Homo sapiens, UniProt P35503).
T4 sequence (P35503 29-534): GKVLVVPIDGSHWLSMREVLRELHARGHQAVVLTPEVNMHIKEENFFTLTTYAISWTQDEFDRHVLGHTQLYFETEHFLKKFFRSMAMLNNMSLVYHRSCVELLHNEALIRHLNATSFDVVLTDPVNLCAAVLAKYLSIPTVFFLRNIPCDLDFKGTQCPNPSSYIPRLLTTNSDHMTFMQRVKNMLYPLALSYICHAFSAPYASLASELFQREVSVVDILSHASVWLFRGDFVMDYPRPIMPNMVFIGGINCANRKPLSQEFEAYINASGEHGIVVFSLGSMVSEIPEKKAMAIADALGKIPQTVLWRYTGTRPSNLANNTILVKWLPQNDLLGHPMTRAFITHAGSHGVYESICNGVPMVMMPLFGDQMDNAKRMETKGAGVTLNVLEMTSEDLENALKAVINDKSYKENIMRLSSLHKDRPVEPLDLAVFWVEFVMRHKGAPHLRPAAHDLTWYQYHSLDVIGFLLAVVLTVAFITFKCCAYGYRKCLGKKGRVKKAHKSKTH
The conditions noted are these: in vitro.

The target in another data set is P-gp (Homo sapiens, UniProt P08183). The conditions noted are these: in vitro.
In the next data set the target is T5, BCRP (Homo sapiens, UniProt Q9UNQ0).
T5 sequence (Q9UNQ0 1-655): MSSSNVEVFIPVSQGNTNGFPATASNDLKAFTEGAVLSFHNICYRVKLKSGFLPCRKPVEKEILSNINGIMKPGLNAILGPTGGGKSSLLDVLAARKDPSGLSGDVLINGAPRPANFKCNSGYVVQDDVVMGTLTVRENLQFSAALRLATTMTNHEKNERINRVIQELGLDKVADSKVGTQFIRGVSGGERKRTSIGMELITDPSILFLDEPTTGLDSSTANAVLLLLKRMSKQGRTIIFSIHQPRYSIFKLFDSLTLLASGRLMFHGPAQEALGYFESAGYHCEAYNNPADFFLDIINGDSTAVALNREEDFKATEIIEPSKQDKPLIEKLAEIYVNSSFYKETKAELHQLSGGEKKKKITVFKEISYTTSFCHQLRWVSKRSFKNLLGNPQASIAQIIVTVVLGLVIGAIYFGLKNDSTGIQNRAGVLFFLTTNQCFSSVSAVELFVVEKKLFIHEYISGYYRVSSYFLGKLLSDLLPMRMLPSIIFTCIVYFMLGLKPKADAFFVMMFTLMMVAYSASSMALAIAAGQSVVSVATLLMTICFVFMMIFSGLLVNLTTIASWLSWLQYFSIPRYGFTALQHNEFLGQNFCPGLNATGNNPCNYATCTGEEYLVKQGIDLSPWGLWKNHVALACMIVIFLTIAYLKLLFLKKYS
The conditions noted are these: in vitro.

For data set [4], the system named is HIV. The conditions noted are these: CD4+ T-cells isolated from thirteen (13) persons.
Data set [5] concerns HIV. The conditions noted are these: monocyte-derived macrophages (MDMs).

T1 sequence (P08684 whole entry): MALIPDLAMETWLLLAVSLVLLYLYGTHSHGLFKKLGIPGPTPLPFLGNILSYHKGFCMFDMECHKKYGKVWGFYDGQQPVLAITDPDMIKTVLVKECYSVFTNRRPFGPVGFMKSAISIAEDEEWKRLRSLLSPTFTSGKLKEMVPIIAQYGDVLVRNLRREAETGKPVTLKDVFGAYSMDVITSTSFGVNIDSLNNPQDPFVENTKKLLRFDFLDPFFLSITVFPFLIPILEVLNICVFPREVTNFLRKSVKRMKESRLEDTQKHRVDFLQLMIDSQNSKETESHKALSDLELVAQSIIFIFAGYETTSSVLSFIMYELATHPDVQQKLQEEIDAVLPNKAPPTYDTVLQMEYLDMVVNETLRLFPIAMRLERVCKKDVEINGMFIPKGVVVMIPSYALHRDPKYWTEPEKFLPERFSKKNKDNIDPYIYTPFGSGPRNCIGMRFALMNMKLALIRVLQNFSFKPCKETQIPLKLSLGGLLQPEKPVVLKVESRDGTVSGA
Sequence of P-gp (P08183 whole entry): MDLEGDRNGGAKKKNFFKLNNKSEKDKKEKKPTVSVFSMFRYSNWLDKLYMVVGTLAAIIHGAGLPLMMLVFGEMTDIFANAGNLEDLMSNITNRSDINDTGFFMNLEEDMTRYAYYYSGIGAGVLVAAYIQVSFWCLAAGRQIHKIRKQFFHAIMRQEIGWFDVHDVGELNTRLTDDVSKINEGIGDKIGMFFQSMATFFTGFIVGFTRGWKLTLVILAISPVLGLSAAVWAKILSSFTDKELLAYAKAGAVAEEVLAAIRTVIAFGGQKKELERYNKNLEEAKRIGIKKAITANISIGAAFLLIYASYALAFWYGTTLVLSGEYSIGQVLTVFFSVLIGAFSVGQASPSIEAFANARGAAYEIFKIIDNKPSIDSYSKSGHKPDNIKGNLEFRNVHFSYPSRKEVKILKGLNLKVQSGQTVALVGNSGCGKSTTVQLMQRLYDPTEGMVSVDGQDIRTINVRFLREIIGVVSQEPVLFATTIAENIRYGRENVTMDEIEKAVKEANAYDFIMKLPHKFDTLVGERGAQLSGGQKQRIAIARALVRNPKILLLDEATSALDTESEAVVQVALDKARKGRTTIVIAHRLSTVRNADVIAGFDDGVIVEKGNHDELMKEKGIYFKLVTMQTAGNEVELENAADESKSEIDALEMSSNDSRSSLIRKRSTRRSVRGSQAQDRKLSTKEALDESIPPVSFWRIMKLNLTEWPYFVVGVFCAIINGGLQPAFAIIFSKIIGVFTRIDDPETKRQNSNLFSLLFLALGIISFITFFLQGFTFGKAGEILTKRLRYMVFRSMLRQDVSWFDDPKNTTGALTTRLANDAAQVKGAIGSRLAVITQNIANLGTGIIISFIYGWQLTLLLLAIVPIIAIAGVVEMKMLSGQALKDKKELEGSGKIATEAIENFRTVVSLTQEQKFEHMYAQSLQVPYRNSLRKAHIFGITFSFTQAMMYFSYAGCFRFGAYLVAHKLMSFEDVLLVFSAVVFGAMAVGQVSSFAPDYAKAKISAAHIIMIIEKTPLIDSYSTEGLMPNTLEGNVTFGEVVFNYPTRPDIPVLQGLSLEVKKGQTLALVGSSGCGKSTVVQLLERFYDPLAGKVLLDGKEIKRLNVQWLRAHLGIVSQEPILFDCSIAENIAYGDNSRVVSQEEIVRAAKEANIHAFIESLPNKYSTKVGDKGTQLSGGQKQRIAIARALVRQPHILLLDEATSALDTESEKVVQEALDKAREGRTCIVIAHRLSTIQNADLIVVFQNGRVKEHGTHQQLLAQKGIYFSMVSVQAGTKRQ

For `C[C@@H]1CCO[C@H]2Cn3cc(C(=O)NCc4ccc(F)cc4F)c(=O)c(O)c3C(=O)N12` [Dolutegravir, (4R,12a5)-N-[(2,4-difluorophenyl)methyl]-7-hydroxy-4-methyl-6,8-dioxo-3 ,4,12,12a-tetrahydro-2H-pyrido[5, 6]pyrazino[2,6-b][1,3]oxazine-9-carboxamide], in data set [1], the “induction or inhibition of cytochrome P450 (CYP) isozymes” value is on record as “demonstrates induction or inhibition”. Besides, at CYP3A4 [2], the “extent to which the drug is a substrate of CYP3A4” value is on record as “about 15%”.
Regarding `Nc1nc(=O)n([C@@H]2CS[C@H](CO)O2)cc1F` [Emtricitabine, 5-fluoro-1-(2R,5S)-[2-(hydroxymethyl)-1,3oxathiolan-5-yl]cytosine], in the data set on HIV-1, the “EC50 value against HIV-1” value is 3 to 158 ng/mL. In addition, the concentration giving a half-maximal response (EC50) in the data set with HIV-1 (read-out: EC50 value against HIV-1) is 1.3 to 640 nM.
Take `O=C(NCc1c(F)cc(F)cc1F)c1cn2c(c(O)c1=O)C(=O)N1[C@H]3CC[C@H](C3)O[C@@H]1C2` [Bictegravir, (2R,5S,13aR)-8-hidroxi-7,9-dioxo-N-[(2,4,6-trifluorofenil)metil]-2,3,4,5,7,9,13,13a-octahidro-2,5-metanopirido[1′,2′: 4,5]pirazino[2,1-b][1,3]oxazepina-10-carboxamida]: on UGT1A9, the “substrate of UGT1A9” value is on record as “substrate”. In addition, the “metabolic clearance through UGT1A1” value at UGT1A1 is “metabolically cleared”. For the same compound, the “metabolic clearance through CYP3A4” value on CYP3A4 [3] is recorded as “metabolically cleared”. In addition, the “substrate of UGT1A3” value at UGT1A3 was “substrate”. Further, the “substrate of P-gp” value on P-gp is reported as “substrate”. The “substrate of BCRP” value on BCRP is reported as “substrate”.
In the case of `CC(C)OC(=O)[C@H](C)N[P@](=O)(CO[C@H](C)Cn1cnc2c(N)ncnc21)Oc1ccccc1` [TAF, L-alanine, N-[(S)-[[(1R)-2-(6-amino-9H-purin-9-yl)-1methylethoxy]methyl]phenoxyphosphinyl]-, 1-methylethyl ester, (2E)-2-butenedioate (2:1)], the EC50 is 11 nM in the data set on HIV [4] (read-out: mean EC50), 10.2 nM in the data set with HIV [4] (read-out: median EC50), 9.7 nM in the data set with HIV [5] (read-out: mean EC50) and 10.3 nM with HIV [5] (read-out: median EC50).

The term EC50 denotes the concentration giving half of the maximal effect.
